Results published in ChEMBL document CHEMBL4346657, “Anticancer activity, dual prooxidant/antioxidant effect and apoptosis induction profile of new bichalcophene-5-carboxamidines” (Eur J Med Chem, 2019).
The source made the active and inactive calls. The rule behind the calls is not given here.

Columns and labels:
OVCAR-5 = experiment: Antiproliferative activity against human OVCAR5 cells assessed as growth inhibition after 48 hrs by sulforhodamine B assay; format: functional; settings: OVCAR-5, 48 h
[1] = Selectivity index, ratio of IC50 for human WI38 cells to GI50 for human NCI60 cells
[2] = Antioxidant activity assessed as DPPH radical scavenging activity incubated in dark for 30 mins by spectrophotometric method relative to control; format: functional; set-up: concentration or dose not given beside the values
SK-MEL-5 = experiment: Antiproliferative activity against human SK-MEL-5 cells assessed as growth inhibition after 48 hrs by sulforhodamine B assay; format: functional; settings: SK-MEL-5, 48 h
KM12 = experiment: Antiproliferative activity against human KM12 cells assessed as growth inhibition after 48 hrs by sulforhodamine B assay; format: functional; settings: KM12, 48 h
HCT-116 [3] = experiment: Induction of apoptosis in human HCT116 cells assessed as increase in p53 mRNA expression at 100 nM after 6 hrs hrs by SYBR green dye-based qRT-PCR analysis relative to control; format: functional
SR = experiment: Antiproliferative activity against human SR cells assessed as growth inhibition after 48 hrs by sulforhodamine B assay; format: functional
MOLT-4 = experiment: Antiproliferative activity against human MOLT4 cells assessed as growth inhibition after 48 hrs by sulforhodamine B assay; format: functional; settings: MOLT-4, 48 h
BT-549 = experiment: Antiproliferative activity against human BT549 cells assessed as growth inhibition after 48 hrs by sulforhodamine B assay; format: functional; settings: BT-549, 48 h
WI-38 = experiment: Cytotoxicity activity against human WI38 cells assessed as reduction in cell viability measured after 48 hrs by MTT assay; format: cell-based; settings: WI-38, 48 h
[4] = (§1) Haemolytic activity in human erythrocytes assessed as induction of hemolysis at 2.5 mM after 30 mins relative to H202; format: cell-based, Erythrocyte; settings: erythrocytes, read-out: Activity
MDA-MB-231 = experiment: Antiproliferative activity against human MDA-MB-231/ATCC cells assessed as growth inhibition after 48 hrs by sulforhodamine B assay; format: functional; settings: MDA-MB-231, 48 h
HCT-116 [5] = experiment: Reduction in CDK1 mRNA expression in human HCT116 cells at 100 nM after 6 hrs hrs by SYBR green dye-based qRT-PCR analysis relative to control; format: functional; settings: HCT-116, 6 h
CAKI-1 = experiment: Antiproliferative activity against human CAKI-1 cells assessed as growth inhibition after 48 hrs by sulforhodamine B assay; format: functional; settings: CAKI-1, 48 h
HCC 2998 = experiment: Antiproliferative activity against human HCC2998 cells assessed as growth inhibition after 48 hrs by sulforhodamine B assay; format: functional; settings: HCC 2998, 48 h
T47D = experiment: Antiproliferative activity against human T47D cells assessed as growth inhibition after 48 hrs by sulforhodamine B assay; format: functional
M14 = experiment: Antiproliferative activity against human M14 cells assessed as growth inhibition after 48 hrs by sulforhodamine B assay; format: functional; settings: M14, 48 h
HCT-116 [6] = experiment: Induction of apoptosis in human HCT116 cells assessed as increase in caspase 3 mRNA expression at 100 nM after 6 hrs hrs by SYBR green dye-based qRT-PCR analysis relative to control; format: functional
SN12C = experiment: Antiproliferative activity against human SN12C cells assessed as growth inhibition after 48 hrs by sulforhodamine B assay; format: functional
[7] = tested on: Panel NCI-60 (60 carcinoma cell lines); experiment: Antiproliferative activity against human NCI60 cells assessed as growth inhibition after 48 hrs by sulforhodamine B assay; format: functional
UACC-257 = experiment: Antiproliferative activity against human UACC257 cells assessed as growth inhibition after 48 hrs by sulforhodamine B assay; format: functional; settings: UACC-257, 48 h
SNB-19 = experiment: Antiproliferative activity against human SNB19 cells assessed as growth inhibition after 48 hrs by sulforhodamine B assay; format: functional; settings: SNB-19, 48 h
LOX IMVI = experiment: Antiproliferative activity against human LOXIMVI cells assessed as growth inhibition after 48 hrs by sulforhodamine B assay; format: functional
A549 = experiment: Antiproliferative activity against human A549/ATCC cells assessed as growth inhibition after 48 hrs by sulforhodamine B assay; format: functional; settings: A549, 48 h
HCT-116 [8] = experiment: Induction of apoptosis in human HCT116 cells assessed as increase in caspase 9 mRNA expression at 100 nM after 6 hrs hrs by SYBR green dye-based qRT-PCR analysis relative to control; format: functional
NCI-H23 = experiment: Antiproliferative activity against human NCI-H23 cells assessed as growth inhibition after 48 hrs by sulforhodamine B assay; format: functional; settings: NCI-H23, 48 h
SK-MEL-28 = experiment: Antiproliferative activity against human SK-MEL-28 cells assessed as growth inhibition after 48 hrs by sulforhodamine B assay; format: functional; settings: SK-MEL-28, 48 h
SF-539 = experiment: Antiproliferative activity against human SF539 cells assessed as growth inhibition after 48 hrs by sulforhodamine B assay; format: functional; settings: SF-539, 48 h
IGROV-1 = experiment: Antiproliferative activity against human IGROV1 cells assessed as growth inhibition after 48 hrs by sulforhodamine B assay; format: functional; settings: IGROV-1, 48 h
HL-60(TB) = experiment: Antiproliferative activity against human HL-60(TB) cells assessed as growth inhibition after 48 hrs by sulforhodamine B assay; format: functional; settings: HL-60, 48 h
RXF 393 = experiment: Antiproliferative activity against human RXF393 cells assessed as growth inhibition after 48 hrs by sulforhodamine B assay; format: functional; settings: RXF 393, 48 h
MDA-MB-468 = experiment: Antiproliferative activity against human MDA-MB-468 cells assessed as growth inhibition after 48 hrs by sulforhodamine B assay; format: functional; settings: MDA-MB-468, 48 h
[9] = Haemolytic activity in human erythrocytes assessed as induction of hemolysis at 5 mM after 30 mins relative to H202; format: cell-based, Erythrocyte; settings: read-out: Activity
786-0 = experiment: Antiproliferative activity against human 786-0 cells assessed as growth inhibition after 48 hrs by sulforhodamine B assay; format: functional; settings: 786-0, 48 h
HCT-15 = experiment: Antiproliferative activity against human HCT15 cells assessed as growth inhibition after 48 hrs by sulforhodamine B assay; format: functional; settings: HCT-15, 48 h
[10] = Antioxidant activity assessed as hydroxyl radical scavenging activity after 1 hr by salicylic acid-based Fenton reaction assay; format: functional
Erythrocyte = experiment: as §1; format: cell-based; settings: erythrocyte, 0.5 h, 2500 µM

## N=C(N)c1ccc(-c2ccc(-c3cc(Cl)cc(Cl)c3)o2)o1
OVCAR-5
  GI50: 1810 nM
[1]
  Selectivity Index: 9.2
[2]
  inhibition: 15.7%
SK-MEL-5
  GI50: 1860 nM
KM12
  GI50: 1650 nM
HCT-116 [3]
  fold change (FC): 1.99
SR
  GI50: 630 nM
MOLT-4
  GI50: 1690 nM
BT-549
  GI50: 1970 nM
WI-38
  IC50: 16000 nM
[4]
  hemolysis at 0.5 h, 2500 µM: 11.1%
MDA-MB-231
  GI50: 1850 nM
HCT-116 [5]
  inhibition at 0.1 µM: 46%
CAKI-1
  GI50: 1700 nM
HCC 2998
  GI50: 1840 nM
T47D
  GI50: 1720 nM
M14
  GI50: 1860 nM
HCT-116 [6]
  fold change (FC): 2.81
SN12C
  GI50: 1970 nM
[7]
  GI50: 1740 nM
  LC50: 10700 nM
  TGI: 3470 nM
UACC-257
  GI50: 2050 nM
SNB-19
  GI50: 1990 nM
LOX IMVI
  GI50: 1680 nM
A549
  GI50: 1950 nM
HCT-116 [8]
  fold change (FC): 2.97
NCI-H23
  GI50: 1670 nM
SK-MEL-28
  GI50: 1730 nM
SF-539
  GI50: 1720 nM
IGROV-1
  GI50: 1730 nM
HL-60(TB)
  GI50: 1620 nM
RXF 393
  GI50: 1790 nM
MDA-MB-468
  GI50: 2230 nM
[9]
  hemolysis at 0.5 h, 5000 µM: 57.1%
786-0
  GI50: 1780 nM
HCT-15
  GI50: 1640 nM
[10]
  Activity: Active

## N=C(N)c1ccc(-c2ccc(-c3cc(Cl)cc(Cl)c3)s2)s1
OVCAR-5
  GI50: 1960 nM
[1]
  Selectivity Index: 50.9
[2]
  inhibition: 27.2%
SK-MEL-5
  GI50: 1900 nM
KM12
  GI50: 1750 nM
HCT-116 [3]
  fold change (FC): 3.98
SR
  GI50: 1060 nM
MOLT-4
  GI50: 1710 nM
BT-549
  GI50: 4370 nM
WI-38
  IC50: 98800 nM
Erythrocyte
  Activity: Non-Toxic
MDA-MB-231
  GI50: 1870 nM
HCT-116 [5]
  inhibition at 0.1 µM: 79%
CAKI-1
  GI50: 1720 nM
HCC 2998
  GI50: 1750 nM
T47D
  GI50: 1800 nM
M14
  GI50: 2020 nM
HCT-116 [6]
  fold change (FC): 1.61
SN12C
  GI50: 2020 nM
[7]
  GI50: 1940 nM
  LC50: 75800 nM
  TGI: 4460 nM
UACC-257
  GI50: 2050 nM
SNB-19
  GI50: 2110 nM
LOX IMVI
  GI50: 1690 nM
A549
  GI50: 2070 nM
HCT-116 [8]
  fold change (FC): 1.54
NCI-H23
  GI50: 1990 nM
SK-MEL-28
  GI50: 1830 nM
SF-539
  GI50: 1700 nM
IGROV-1
  GI50: 1970 nM
HL-60(TB)
  GI50: 1660 nM
RXF 393
  GI50: 1850 nM
MDA-MB-468
  GI50: 2060 nM
[9]
  hemolysis at 0.5 h, 5000 µM: 6.7%
786-0
  GI50: 1980 nM
HCT-15
  GI50: 1620 nM
[10]
  Activity: Active

## COc1ccc2cc(-c3ccc(-c4ccc(C(=N)N)s4)s3)ccc2c1
OVCAR-5
  GI50: 2110 nM
[1]
  Selectivity Index: 26
[2]
  inhibition: 43%
SK-MEL-5
  GI50: 16100 nM
KM12
  GI50: 2060 nM
HCT-116 [3]
  fold change (FC): 1.03
SR
  GI50: 850 nM
MOLT-4
  GI50: 2170 nM
BT-549
  GI50: 17600 nM
WI-38
  IC50: 80500 nM
Erythrocyte
  Activity: Non-Toxic
MDA-MB-231
  GI50: 2460 nM
CAKI-1
  GI50: 8290 nM
HCC 2998
  GI50: 3350 nM
T47D
  GI50: 1790 nM
M14
  GI50: 4000 nM
HCT-116 [6]
  fold change (FC): 2.44
SN12C
  GI50: 2120 nM
[7]
  GI50: 3090 nM
  LC50: 38000 nM
  TGI: 7940 nM
UACC-257
  GI50: 19600 nM
SNB-19
  GI50: 2130 nM
LOX IMVI
  GI50: 1950 nM
A549
  GI50: 2220 nM
HCT-116 [8]
  fold change (FC): 2.51
NCI-H23
  GI50: 3220 nM
SK-MEL-28
  GI50: 2500 nM
SF-539
  GI50: 3910 nM
IGROV-1
  GI50: 2270 nM
HL-60(TB)
  GI50: 1840 nM
RXF 393
  GI50: 7220 nM
MDA-MB-468
  GI50: 2340 nM
[9]
  hemolysis at 0.5 h, 5000 µM: 11.3%
786-0
  GI50: 2040 nM
HCT-15
  GI50: 1890 nM
[10]
  Activity: Active
